Results taken from PubChem BioAssay (NCI).
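Interpolation was linear, between the two tested concentrations surrounding the appropriate level; five concentrations were tested over 48 hours in 96-well plates. GI50 is the concentration that inhibits growth by half. TGI marks complete inhibition of growth.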

Tests used:
Experiment in all cases: NCI-60 cell line screen, 48 h
EKVX NSCLC = system: EKVX NSCLC
IGROV1 ovarian = system: IGROV1 ovarian
NCI-H23 lung = system: NCI-H23 lung
OVCAR-8 ovarian = system: OVCAR-8 ovarian
HCT-15 colon = system: HCT-15 colon
DU-145 prostate = system: DU-145 prostate
TK-10 renal = system: TK-10 renal
A549 NSCLC = system: A549 NSCLC
SK-MEL-28 melanoma = system: SK-MEL-28 melanoma
OVCAR-5 ovarian = system: OVCAR-5 ovarian
COLO 205 colon = system: COLO 205 colon
SN12C renal = system: SN12C renal
HOP-92 NSCLC = system: HOP-92 NSCLC
MDA-MB-435 = system: MDA-MB-435
SNB-19 CNS = system: SNB-19 CNS
SF-268 CNS = system: SF-268 CNS
U251 CNS = system: U251 CNS
SNB-75 CNS = system: SNB-75 CNS
SK-MEL-5 melanoma = system: SK-MEL-5 melanoma
HL-60(TB) leukemia = system: HL-60(TB) leukemia
HOP-62 NSCLC = system: HOP-62 NSCLC
KM12 colon = system: KM12 colon
NCI-H522 lung = system: NCI-H522 lung
HT29 colon = system: HT29 colon
NCI-H460 lung = system: NCI-H460 lung
SF-539 CNS = system: SF-539 CNS
HCC-2998 colon = system: HCC-2998 colon
UACC-257 melanoma = system: UACC-257 melanoma
ACHN renal = system: ACHN renal
M14 melanoma = system: M14 melanoma
CCRF-CEM leukemia = system: CCRF-CEM leukemia
MOLT-4 leukemia = system: MOLT-4 leukemia
RPMI-8226 leukemia = system: RPMI-8226 leukemia
SR leukemia = system: SR leukemia
T-47D breast = system: T-47D breast
HCT-116 colon = system: HCT-116 colon
MDA-MB-468 breast = system: MDA-MB-468 breast
MCF7 breast = system: MCF7 breast
OVCAR-3 ovarian = system: OVCAR-3 ovarian
MALME-3M melanoma = system: MALME-3M melanoma
HS 578T breast = system: HS 578T breast
OVCAR-4 ovarian = system: OVCAR-4 ovarian
786-0 renal = system: 786-0 renal
A498 renal = system: A498 renal
NCI-H226 lung = system: NCI-H226 lung
SK-MEL-2 melanoma = system: SK-MEL-2 melanoma
LOX IMVI melanoma = system: LOX IMVI melanoma
PC-3 prostate = system: PC-3 prostate
SF-295 CNS = system: SF-295 CNS
BT-549 breast = system: BT-549 breast
UO-31 renal = system: UO-31 renal
RXF 393 renal = system: RXF 393 renal
K-562 leukemia = system: K-562 leukemia
CAKI-1 renal = system: CAKI-1 renal
SK-OV-3 ovarian = system: SK-OV-3 ovarian
SW-620 colon = system: SW-620 colon
MDA-MB-231 breast = system: MDA-MB-231 breast
UACC-62 melanoma = system: UACC-62 melanoma

SMILES: O=C(c1ccc(O)cc1)C1[C@H](c2ccc(Br)cc2)[C@@H](c2ccccc2)NC12C(=O)Nc1ccc(Br)cc12 (stereo partly specified)
- GI50 (EKVX NSCLC): 4.19 µM
- TGI (EKVX NSCLC): 9.07 µM
- GI50 (IGROV1 ovarian): 3.88 µM
- TGI (IGROV1 ovarian): 8.19 µM
- GI50 (NCI-H23 lung): 4.9 µM
- TGI (NCI-H23 lung): 9.81 µM
- GI50 (OVCAR-8 ovarian): 5.06 µM
- TGI (OVCAR-8 ovarian): 9.8 µM
- GI50 (HCT-15 colon): 4.16 µM
- TGI (HCT-15 colon): 9.35 µM
- GI50 (DU-145 prostate): 5.23 µM
- TGI (DU-145 prostate): 10 µM
- GI50 (TK-10 renal): 4.44 µM
- TGI (TK-10 renal): 8.86 µM
- GI50 (A549 NSCLC): 3.59 µM
- TGI (A549 NSCLC): 8.38 µM
- GI50 (SK-MEL-28 melanoma): 5.3 µM
- TGI (SK-MEL-28 melanoma): 9.96 µM
- GI50 (OVCAR-5 ovarian): 4.83 µM
- TGI (OVCAR-5 ovarian): 9.34 µM
- GI50 (COLO 205 colon): 4.57 µM
- TGI (COLO 205 colon): 9.99 µM
- GI50 (SN12C renal): 4.53 µM
- TGI (SN12C renal): 8.99 µM
- GI50 (HOP-92 NSCLC): 4.39 µM
- TGI (HOP-92 NSCLC): 9.26 µM
- GI50 (MDA-MB-435): 5.81 µM
- TGI (MDA-MB-435): 11.1 µM
- GI50 (SNB-19 CNS): 5.11 µM
- TGI (SNB-19 CNS): 9.75 µM
- GI50 (SF-268 CNS): 4.56 µM
- TGI (SF-268 CNS): 10.2 µM
- GI50 (U251 CNS): 4.96 µM
- TGI (U251 CNS): 9.62 µM
- GI50 (SNB-75 CNS): 2.12 µM
- TGI (SNB-75 CNS): 7.06 µM
- GI50 (SK-MEL-5 melanoma): 5.63 µM
- TGI (SK-MEL-5 melanoma): 10.4 µM
- GI50 (HL-60(TB) leukemia): 7.39 µM
- TGI (HL-60(TB) leukemia): 16.7 µM
- GI50 (HOP-62 NSCLC): 4.81 µM
- TGI (HOP-62 NSCLC): 9.7 µM
- GI50 (KM12 colon): 4.5 µM
- TGI (KM12 colon): 10.1 µM
- GI50 (NCI-H522 lung): 4.45 µM
- TGI (NCI-H522 lung): 9.15 µM
- GI50 (HT29 colon): 4.48 µM
- TGI (HT29 colon): 9.48 µM
- GI50 (NCI-H460 lung): 4.29 µM
- TGI (NCI-H460 lung): 8.92 µM
- GI50 (SF-539 CNS): 5.34 µM
- TGI (SF-539 CNS): 10 µM
- GI50 (HCC-2998 colon): 4.19 µM
- TGI (HCC-2998 colon): 8.86 µM
- GI50 (UACC-257 melanoma): 4.93 µM
- TGI (UACC-257 melanoma): 9.52 µM
- GI50 (ACHN renal): 4.03 µM
- TGI (ACHN renal): 8.21 µM
- GI50 (M14 melanoma): 4.52 µM
- TGI (M14 melanoma): 9.24 µM
- GI50 (CCRF-CEM leukemia): 5.09 µM
- TGI (CCRF-CEM leukemia): 11.6 µM
- GI50 (MOLT-4 leukemia): 3.39 µM
- TGI (MOLT-4 leukemia): 9.62 µM
- GI50 (RPMI-8226 leukemia): 5.97 µM
- TGI (RPMI-8226 leukemia): 19 µM
- GI50 (SR leukemia): 3.79 µM
- TGI (SR leukemia): 9.3 µM
- GI50 (T-47D breast): 3.93 µM
- TGI (T-47D breast): 8.58 µM
- GI50 (HCT-116 colon): 4.16 µM
- TGI (HCT-116 colon): 8.63 µM
- GI50 (MDA-MB-468 breast): 4.58 µM
- TGI (MDA-MB-468 breast): 9.97 µM
- GI50 (MCF7 breast): 3.89 µM
- TGI (MCF7 breast): 9.13 µM
- GI50 (OVCAR-3 ovarian): 5.21 µM
- TGI (OVCAR-3 ovarian): 10.1 µM
- GI50 (MALME-3M melanoma): 4.96 µM
- TGI (MALME-3M melanoma): 9.61 µM
- GI50 (HS 578T breast): 4.95 µM
- TGI (HS 578T breast): 12.9 µM
- GI50 (OVCAR-4 ovarian): 4.82 µM
- TGI (OVCAR-4 ovarian): 9.63 µM
- GI50 (786-0 renal): 5.22 µM
- TGI (786-0 renal): 9.86 µM
- GI50 (A498 renal): 4.24 µM
- TGI (A498 renal): 8.7 µM
- GI50 (NCI-H226 lung): 4.39 µM
- TGI (NCI-H226 lung): 9.76 µM
- GI50 (SK-MEL-2 melanoma): 4.95 µM
- TGI (SK-MEL-2 melanoma): 9.48 µM
- GI50 (LOX IMVI melanoma): 4.36 µM
- TGI (LOX IMVI melanoma): 9.1 µM
- GI50 (PC-3 prostate): 4.14 µM
- TGI (PC-3 prostate): 9.22 µM
- GI50 (SF-295 CNS): 4.23 µM
- TGI (SF-295 CNS): 8.81 µM
- GI50 (BT-549 breast): 5.54 µM
- TGI (BT-549 breast): 10.4 µM
- GI50 (UO-31 renal): 2.66 µM
- TGI (UO-31 renal): 7.08 µM
- GI50 (RXF 393 renal): 3.54 µM
- TGI (RXF 393 renal): 8.33 µM
- GI50 (K-562 leukemia): 4.72 µM
- TGI (K-562 leukemia): 11.8 µM
- GI50 (CAKI-1 renal): 2.28 µM
- TGI (CAKI-1 renal): 7.08 µM
- GI50 (SK-OV-3 ovarian): 4.51 µM
- TGI (SK-OV-3 ovarian): 9.21 µM
- GI50 (SW-620 colon): 5.08 µM
- TGI (SW-620 colon): 10.2 µM
- GI50 (MDA-MB-231 breast): 4.25 µM
- TGI (MDA-MB-231 breast): 8.61 µM
- GI50 (UACC-62 melanoma): 4.22 µM
- TGI (UACC-62 melanoma): 8.54 µM
